We go through 45 compounds from patent US20080021026A1, “BENZOTHIOPHENE INHIBITORS OF RHO KINASE” (priority 2006, published 2008).

For this experiment, the target named is T1, recombinant N-terminal GST-tagged human Rho kinase 2 (ROCK2, amino acids 1-552) (Homo sapiens, UniProt O75116).
T1 construct: ROCK2, amino acids 1-552; purchased Invitrogen Inc. PV3759
T1 sequence (O75116 1-552): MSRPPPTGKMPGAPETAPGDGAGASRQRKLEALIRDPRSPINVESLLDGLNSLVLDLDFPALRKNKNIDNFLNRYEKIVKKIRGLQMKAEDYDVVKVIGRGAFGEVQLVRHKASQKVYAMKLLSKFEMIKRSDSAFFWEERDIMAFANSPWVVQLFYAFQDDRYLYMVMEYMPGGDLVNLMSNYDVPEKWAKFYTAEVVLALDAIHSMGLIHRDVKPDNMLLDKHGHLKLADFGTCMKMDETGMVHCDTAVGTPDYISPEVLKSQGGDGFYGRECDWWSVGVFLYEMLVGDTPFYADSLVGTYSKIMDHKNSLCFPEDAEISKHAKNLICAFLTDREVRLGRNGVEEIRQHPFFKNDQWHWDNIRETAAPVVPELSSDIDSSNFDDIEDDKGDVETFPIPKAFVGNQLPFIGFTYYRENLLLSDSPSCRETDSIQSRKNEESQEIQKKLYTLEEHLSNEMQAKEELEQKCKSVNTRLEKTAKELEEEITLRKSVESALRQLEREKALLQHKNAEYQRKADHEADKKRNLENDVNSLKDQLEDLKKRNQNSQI
Put plainly: In vitro Rho kinase assay (luciferase-based ATP consumption), ROCK2. To be noted: recombinant GST-tagged human ROCK2, luciferase-based ATP consumption; read-out: ROCK2 IC50. The experiment is classed as biochemical. As to the method:
In Vitro Rho Kinase Assay
Rho kinase biochemical assays described below depend on firefly luciferase-based, indirect measurement of total ATP consumption by the kinase following incubation with substrate and ATP. 25 μl of Rho kinase assay buffer (20 mM Tris-HCL [pH 7.5], 1 mM MgCl2, 0.4 mM CaCl2, 0.15 mM EGTA, 0.1 mg/ml bovine serum albumin) containing 0.82 μg/ml of recombinant N-terminal GST-tagged human Rho kinase 1 (ROCK1, amino acids 1-535, Invitrogen Inc., cat. #PV-3691) or recombinant N-terminal GST-tagged human Rho kinase 2 (ROCK2, amino acids 1-552, Invitrogen Inc., cat #PV3759), 100 μg/ml S6 peptide substrate (related to amino acids 218-249 of the human 40S ribosomal protein S6, and suitable for ROCK1 or ROCK2, e.g. Upstate/Millipore Inc., cat #12-420), and 3 µM ATP are dispensed to wells of a 384 multi-well opaque plate. The plate is centrifuged for 30 seconds at approximately 200×g. 240 nl of test compound in DMSO is dispensed to each well by passive pin transfer. The lag phase of this in vitro kinase reaction permits addition of compounds soon after the reaction initiates. The reaction is allowed to incubate at 30° C. for 2 hours. The assay plates are sealed and maintained in a humidified environment. After 2 hours, 25 μl of easylite protein kinase assay reagent (Perkin-Elmer, Inc.) is dispensed. After an additional 10 minute incubation at room temperature (about 22° C.), luminescence activity is measured on a Molecular Devices Analyst multi-mode plate reader or other suitable plate reader. Kinase inhibition results in less ATP consumption, and therefore increased luminescence signal. Negative control activity is measured with DMSO lacking any test compound. The positive control is 2-methyl-1-(4-methylisoquinolin-5-ylsulfonyl)perhydro-1,4-diazepine hydrochloride (aka H-1152P, HCl salt). Efficacy is measured as a percentage of positive control activity. […] In some cases, kinase reactions and compound testing are performed in 1536 multi-well plates under similar conditions, with assay volumes appropriately scaled. The designation NT means the cited example was not tested.
In general, IC50 refers to the concentration at which inhibition is half-maximal. In the case of `Cc1c(-c2ccnc(N)n2)sc2ccc(Nc3cccc(O)c3)cc12` [Example 52, 3-(2-(2-Aminopyrimidin-4-yl)-3-methylbenzo[b]thiophen-5-ylamino)phenol], the IC50 was < 5 µM.

For the compound `Cc1c(-c2ccnc(N)n2)sc2ccc(Oc3cccc(O)c3)cc12` [Example 82, 3-(2-(2-Aminopyrimidin-4-yl)-3-methylbenzo[b]thiophen-5-yloxy)phenol], the IC50 is < 5 µM.

For `CNC(=O)c1ccc2sc(-c3ccnc(N)n3)c(C)c2c1` [Example 329, CNC(═O)c1ccc2sc(c(C)c2c1)-c3ccnc(N)n3], the IC50 was < 5 µM.

Regarding `CCNC(=O)c1ccc2sc(-c3ccnc(N)n3)c(C)c2c1` [Example 330, CCNC(═O)c1ccc2sc(c(C)c2c1)-c3ccnc(N)n3], the IC50 is < 5 µM.

On to `C#CCNC(=O)c1ccc2sc(-c3ccnc(N)n3)c(C)c2c1` [Example 331, Cc1c(sc2ccc(cc12)C(═O)NCC#C)-c3ccnc(N)n3], for which the IC50 was < 5 µM.

As for `Cc1c(-c2ccnc(N)n2)sc2ccc(C(=O)NCC#N)cc12` [Example 332, Cc1c(sc2ccc(cc12)C(═O)NCC#N)-c3ccnc(N)n3], the IC50 was < 5 µM.

Consider `Cc1c(-c2ccnc(N)n2)sc2ccc(C(=O)NC3CC3)cc12` [Example 333, Cc1c(sc2ccc(cc12)C(═O)NC3CC3)-c4ccnc(N)n4], for which the IC50 was < 5 µM.

For the compound `Cc1c(-c2ccnc(N)n2)sc2ccc(C(=O)NC(C)C)cc12` [Example 334, CC(C)NC(═O)c1ccc2sc(c(C)c2c1)-c3ccnc(N)n3], the IC50 was > 5 µM.

Turning to `CCCNC(=O)c1ccc2sc(-c3ccnc(N)n3)c(C)c2c1` [Example 335, CCCNC(═O)c1ccc2sc(c(C)c2c1)-c3ccnc(N)n3], the IC50 is < 5 µM.

Turning to `Cc1c(-c2ccnc(N)n2)sc2ccc(C(=O)NCCN)cc12` [Example 336, Cc1c(sc2ccc(cc12)C(═O)NCCN)-c3ccnc(N)n3], the IC50 was < 5 µM.

For the compound `Cc1c(-c2ccnc(N)n2)sc2ccc(C(=O)NCCO)cc12` [Example 337, Cc1c(sc2ccc(cc12)C(═O)NCCO)-c3ccnc(N)n3], the IC50 is < 5 µM.

`Cc1c(-c2ccnc(N)n2)sc2ccc(C(=O)NCCC#N)cc12` [Example 338, Cc1c(sc2ccc(cc12)C(═O)NCCC#N)-c3ccnc(N)n3]: the IC50 was < 5 µM.

As for `Cc1c(-c2ccnc(N)n2)sc2ccc(C(=O)NC3CCC3)cc12` [Example 339, Cc1c(sc2ccc(cc12)C(═O)NC3CCC3)-c4ccnc(N)n4], the IC50 is < 5 µM.

Take `Cc1c(-c2ccnc(N)n2)sc2ccc(C(=O)NCC3CC3)cc12` [Example 340, Cc1c(sc2ccc(cc12)C(═O)NCC3CC3)-c4ccnc(N)n4]: the IC50 is < 5 µM.

In the case of `CCC(C)NC(=O)c1ccc2sc(-c3ccnc(N)n3)c(C)c2c1` (stereo not drawn) [Example 341, CCC(C)NC(═O)c1ccc2sc(c(C)c2c1)-c3ccnc(N)n3], the IC50 was < 5 µM.

As for `Cc1c(-c2ccnc(N)n2)sc2ccc(C(=O)NCC(C)C)cc12` [Example 342, CC(C)CNC(═O)c1ccc2sc(c(C)c2c1)-c3ccnc(N)n3], the IC50 was < 5 µM.

Consider `Cc1c(-c2ccnc(N)n2)sc2ccc(C(=O)NCCCO)cc12` [Example 343, Cc1c(sc2ccc(cc12)C(═O)NCCCO)-c3ccnc(N)n3], for which the IC50 was < 5 µM.

For `Cc1c(-c2ccnc(N)n2)sc2ccc(C(=O)NC(C)CO)cc12` (stereo not drawn) [Example 344, CC(CO)NC(═O)c1ccc2sc(c(C)c2c1)-c3ccnc(N)n3], the IC50 is < 5 µM.

Turning to `COCCNC(=O)c1ccc2sc(-c3ccnc(N)n3)c(C)c2c1` [Example 345, COCCNC(═O)c1ccc2sc(c(C)c2c1)-c3ccnc(N)n3], the IC50 was < 5 µM.

As for `Cc1c(-c2ccnc(N)n2)sc2ccc(C(=O)NC3CCCC3)cc12` [Example 346, Cc1c(sc2ccc(cc12)C(═O)NC3CCCC3)-c4ccnc(N)n4], the IC50 is < 5 µM.

Regarding `CCCC(C)NC(=O)c1ccc2sc(-c3ccnc(N)n3)c(C)c2c1` (stereo not drawn) [Example 347, CCCC(C)NC(═O)c1ccc2sc(c(C)c2c1)-c3ccnc(N)n3], the IC50 is < 5 µM.

Consider `CCC(C)CNC(=O)c1ccc2sc(-c3ccnc(N)n3)c(C)c2c1` (stereo not drawn) [Example 348, CCC(C)CNC(═O)c1ccc2sc(c(C)c2c1)-c3ccnc(N)n3], for which the IC50 is < 5 µM.

Take `Cc1c(-c2ccnc(N)n2)sc2ccc(C(=O)NC(C)C(C)C)cc12` (stereo not drawn) [Example 349, CC(C)C(C)NC(═O)c1ccc2sc(c(C)c2c1)-c3ccnc(N)n3]: the IC50 was > 5 µM.

With `Cc1c(-c2ccnc(N)n2)sc2ccc(C(=O)NCCC(C)C)cc12` [Example 350, CC(C)CCNC(═O)c1ccc2sc(c(C)c2c1)-c3ccnc(N)n3], the IC50 is < 5 µM.

As to `Cc1c(-c2ccnc(N)n2)sc2ccc(C(=O)NCCN(C)C)cc12` [Example 351, CN(C)CCNC(═O)c1ccc2sc(c(C)c2c1)-c3ccnc(N)n3], the IC50 was < 5 µM.

For the compound `COCC(C)NC(=O)c1ccc2sc(-c3ccnc(N)n3)c(C)c2c1` (stereo not drawn) [Example 352, COCC(C)NC(═O)c1ccc2sc(c(C)c2c1)-c3ccnc(N)n3], the IC50 is > 5 µM.

Take `CCC(CO)NC(=O)c1ccc2sc(-c3ccnc(N)n3)c(C)c2c1` (stereo not drawn) [Example 353, CCC(CO)NC(═O)c1ccc2sc(c(C)c2c1)-c3ccnc(N)n3]: the IC50 was < 5 µM.

For the compound `Cc1c(-c2ccnc(N)n2)sc2ccc(C(=O)NCCCCO)cc12` [Example 354, Cc1c(sc2ccc(cc12)C(═O)NCCCCO)-c3ccnc(N)n3], the IC50 was < 5 µM.

Regarding `Cc1c(-c2ccnc(N)n2)sc2ccc(C(=O)NCc3ccco3)cc12` [Example 355, Cc1c(sc2ccc(cc12)C(═O)NCc3ccco3)-c4ccnc(N)n4], the IC50 was < 5 µM.

Turning to `Cc1c(-c2ccnc(N)n2)sc2ccc(C(=O)NC3CCCCC3)cc12` [Example 356, Cc1c(sc2ccc(cc12)C(═O)NC3CCCCC3)-c4ccnc(N)n4], the IC50 was > 5 µM.

Consider `Cc1c(-c2ccnc(N)n2)sc2ccc(C(=O)NCC3CCCO3)cc12` (stereo not drawn) [Example 357, Cc1c(sc2ccc(cc12)C(═O)NCC3CCCO3)-c4ccnc(N)n4], for which the IC50 is < 5 µM.

Turning to `Cc1c(-c2ccnc(N)n2)sc2ccc(C(=O)NCCC(C)(C)C)cc12` [Example 358, Cc1c(sc2ccc(cc12)C(═O)NCCC(C)(C)C)-c3ccnc(N)n3], the IC50 was < 5 µM.

For `Cc1c(-c2ccnc(N)n2)sc2ccc(C(=O)NC(C)CC(C)C)cc12` (stereo not drawn) [Example 359, CC(C)CC(C)NC(═O)c1ccc2sc(c(C)c2c1)-c3ccnc(N)n3], the IC50 was > 5 µM.

As for `Cc1c(-c2ccnc(N)n2)sc2ccc(C(=O)NC3CONC3=O)cc12` (stereo not drawn) [Example 360, Cc1c(sc2ccc(cc12)C(═O)NC3CONC3═O)-c4ccnc(N)n4], the IC50 is < 5 µM.

In the case of `Cc1c(-c2ccnc(N)n2)sc2ccc(C(=O)NN3CCOCC3)cc12` [Example 361, Cc1c(sc2ccc(cc12)C(═O)NN3CCOCC3)-c4ccnc(N)n4], the IC50 is < 5 µM.

Turning to `Cc1c(-c2ccnc(N)n2)sc2ccc(C(=O)NC(CO)C(C)C)cc12` (stereo not drawn) [Example 362, CC(C)C(CO)NC(═O)c1ccc2sc(c(C)c2c1)-c3ccnc(N)n3], the IC50 was < 5 µM.

On to `Cc1c(-c2ccnc(N)n2)sc2ccc(C(=O)NCc3ccccc3)cc12` [Example 363, Cc1c(sc2ccc(cc12)C(═O)NCc3ccccc3)-c4ccnc(N)n4], for which the IC50 is < 5 µM.

As to `Cc1c(-c2ccnc(N)n2)sc2ccc(C(=O)NCc3cccnc3)cc12` [Example 364, Cc1c(sc2ccc(cc12)C(═O)NCc3cccnc3)-c4ccnc(N)n4], the IC50 is < 5 µM.

With `Cc1c(-c2ccnc(N)n2)sc2ccc(C(=O)NCc3ccccn3)cc12` [Example 365, Cc1c(sc2ccc(cc12)C(═O)NCc3ccccn3)-c4ccnc(N)n4], the IC50 was < 5 µM.

Consider `Cc1c(-c2ccnc(N)n2)sc2ccc(C(=O)NCc3ccncc3)cc12` [Example 366, Cc1c(sc2ccc(cc12)C(═O)NCc3ccncc3)-c4ccnc(N)n4], for which the IC50 is < 5 µM.

Regarding `Cc1c(-c2ccnc(N)n2)sc2ccc(C(=O)NCc3cccs3)cc12` [Example 367, Cc1c(sc2ccc(cc12)C(═O)NCc3cccs3)-c4ccnc(N)n4], the IC50 is < 5 µM.

Take `Cc1c(-c2ccnc(N)n2)sc2ccc(C(=O)NC3CCC(C)CC3)cc12` (stereo not drawn) [Example 368, CC1CCC(CC1)NC(═O)c2ccc3sc(c(C)c3c2)-c4ccnc(N)n4]: the IC50 is > 5 µM.

For the compound `Cc1c(-c2ccnc(N)n2)sc2ccc(C(=O)NCC3CCCCC3)cc12` [Example 369, Cc1c(sc2ccc(cc12)C(═O)NCC3CCCCC3)-c4ccnc(N)n4], the IC50 was < 5 µM.

As for `Cc1c(-c2ccnc(N)n2)sc2ccc(C(=O)NC3CCCCCC3)cc12` [Example 370, Cc1c(sc2ccc(cc12)C(═O)NC3CCCCCC3)-c4ccnc(N)n4], the IC50 was > 5 µM.

Consider `Cc1c(-c2ccnc(N)n2)sc2ccc(C(=O)NC3CCCCC3C)cc12` (stereo not drawn) [Example 371, CC1CCCCC1NC(═O)c2ccc3sc(c(C)c3c2)-c4ccnc(N)n4], for which the IC50 was > 5 µM.
